From US20260242748A1, “FORMULATION FOR CELL CRYOPRESERVATION” (ENCELL CO., LTD, priority 2023, published 2026)

Tests used:
WJ-MSCs [1] = details: glutathione at 100 μM (tested 0, 10, 50, 100 μM) after H2O2 0-100 μM; FIG. 2
Experimental: In order to determine the optimal concentration of glutathione in the cryopreservation formulation, the WJ-MSCs were treated with hydrogen peroxide (H2O2) at concentrations of 0 μM, 10 μM, 50 μM, and 100 μM, to induce stress caused by reactive oxygen species, and then further treated with glutathione at concentrations of 0 μM, 10 μM, 50 μM, and 100 μM, and cell recovery was evaluated using a CCK-8 assay.

WJ-MSCs [2] = details: FIG. 1
Experimental: Specifically, the umbilical cord was cut into 3-4 cm lengths, the tissue was finely chopped and treated with collagenase solution (Gibco, USA) for 60 to 90 minutes to degrade the extracellular matrix, and 0.25% trypsin (Gibco, USA) was added to further induce digestion for 30 minutes at 37° C. Then, fetal bovine serum (FBS; Biowest, USA) was added and cells were obtained by centrifugation at 1,000 g for 10 minutes, and then were cultured in a 5% CO2 environment at 37° C. using MEM Alpha (Minimum Essential Medium, Invitrogen-Gibco, Rockville, MD) medium containing 10% FBS (fetal bovine serum, Invitrogen-Gibco) and 50 μg/mL gentamicin (Invitrogen-Gibco) to obtain human umbilical cord-derived mesenchymal stem cells (WJ-MSCs), which were then used in the experiment. […] The WJ-MSCs were seeded at 1×10^4 cells in a 96-well plate and cultured for 24 hours.

For N[C@@H](CCC(=O)N[C@@H](CS)C(=O)NCC(=O)O)C(=O)O [glutathione], the “cell viability (cell recovery)” value (WJ-MSCs [1]) was “highest”, the cell viability (WJ-MSCs [2]; 1×10^4 cells in 96-well plate, cultured 24 hours, compared with acetadote, fursultiamine hydrochloride, vitamin C) was “highest” and the cell proliferation (WJ-MSCs [2]; CCK-8 assay) was “further increased”.
